In US12617797B2, “Substituted pyrazolo [1,5-a]pyrimidines having multimodal activity against pain” (ESTEVE PHARMACEUTICALS, S.A., priority 2020, dated 2026):

Experiments:
Human σ1 receptor = target: T1, Human σ1 receptor (Homo sapiens, UniProt Q99720); assay: Human σ1 receptor radioligand assay ([3H](+)-pentazocine binding, transfected HEK-293 membranes); settings: binding to σ1 receptor expressed as Ki; + also covers inhibition between 1% and 50%; read-out: σ-1 binding
T1 construct: expressed in transfected cells; host or cells: HEK-293
T1 sequence (Q99720 whole entry): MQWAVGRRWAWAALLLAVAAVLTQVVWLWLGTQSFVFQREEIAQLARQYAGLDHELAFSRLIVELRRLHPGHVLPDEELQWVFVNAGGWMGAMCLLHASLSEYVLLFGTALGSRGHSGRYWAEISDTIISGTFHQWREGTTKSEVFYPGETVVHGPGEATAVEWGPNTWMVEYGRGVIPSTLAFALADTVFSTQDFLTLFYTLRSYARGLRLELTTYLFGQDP
In short: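 Membranes (7 μg) were incubated with 5 nM [3H](+)-pentazocine in 50 mM Tris-HCl pH 8 for 120 min at 37° C. Non-specific binding was defined with 10 μM haloperidol. Values are % inhibition at 1 or 10 μM or Ki from five concentrations, read by filtration and scintillation counting.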

[1] = target: Human α2δ-1 subunit of Cav2.2 calcium channel (Homo sapiens, UniProt P54289); assay: Human α2δ-1 subunit of Cav2.2 calcium channel assay ([3H]-gabapentin binding); settings: binding to the α2δ-1 subunit of voltage-gated calcium channels expressed as Ki; + also covers inhibition between 1% and 50%
Human α2δ-1 subunit of Cav2.2 calcium channel, sequence (P54289 25-1103): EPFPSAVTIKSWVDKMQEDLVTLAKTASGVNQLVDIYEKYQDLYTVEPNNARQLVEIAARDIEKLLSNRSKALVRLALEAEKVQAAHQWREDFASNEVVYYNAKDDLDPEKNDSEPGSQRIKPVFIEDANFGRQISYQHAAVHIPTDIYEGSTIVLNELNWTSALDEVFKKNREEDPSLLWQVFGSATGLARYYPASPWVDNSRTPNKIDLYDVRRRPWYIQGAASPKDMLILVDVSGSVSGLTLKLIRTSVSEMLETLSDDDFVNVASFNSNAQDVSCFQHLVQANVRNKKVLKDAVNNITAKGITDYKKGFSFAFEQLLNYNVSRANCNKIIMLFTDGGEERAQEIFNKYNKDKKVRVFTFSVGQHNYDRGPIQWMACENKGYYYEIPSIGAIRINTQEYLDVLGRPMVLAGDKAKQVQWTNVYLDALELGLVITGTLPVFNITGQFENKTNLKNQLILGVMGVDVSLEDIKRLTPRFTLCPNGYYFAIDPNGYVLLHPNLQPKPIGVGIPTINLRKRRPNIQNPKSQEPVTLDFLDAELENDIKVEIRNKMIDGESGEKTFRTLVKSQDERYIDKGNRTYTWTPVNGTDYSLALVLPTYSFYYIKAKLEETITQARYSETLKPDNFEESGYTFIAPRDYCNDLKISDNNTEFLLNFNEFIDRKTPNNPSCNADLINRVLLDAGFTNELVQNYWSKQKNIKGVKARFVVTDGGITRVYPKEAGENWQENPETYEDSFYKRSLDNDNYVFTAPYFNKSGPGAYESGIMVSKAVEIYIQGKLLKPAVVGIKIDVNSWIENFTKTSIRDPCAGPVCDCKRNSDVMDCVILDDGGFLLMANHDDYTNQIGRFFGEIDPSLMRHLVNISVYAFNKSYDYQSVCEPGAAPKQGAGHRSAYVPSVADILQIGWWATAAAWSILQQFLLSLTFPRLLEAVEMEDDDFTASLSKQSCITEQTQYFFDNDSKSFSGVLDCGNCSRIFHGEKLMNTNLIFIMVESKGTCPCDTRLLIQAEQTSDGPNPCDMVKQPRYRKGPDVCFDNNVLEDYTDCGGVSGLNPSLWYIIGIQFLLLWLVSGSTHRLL
In short: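 Membranes enriched in human α2δ-1 incubated with 15 nM [3H]-gabapentin in 10 mM Hepes-KOH pH 7.4, 60 min at 27 °C; nonspecific binding defined with 10 μM pregabalin. Filtration and scintillation counting; % inhibition at 1 or 10 μM, or Ki from five concentrations.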

Ki (Human σ1 receptor) | Ki [1] | Structure (SMILES)
< 500 nM | 500 to 5000 nM | Cc1nn2c(C3CCCN(Cc4ccc(Cl)cc4)C3)ccnc2c1CNCc1cccs1 (stereo not drawn) [Example 149, 1-(7-(1-(4-Chlorobenzyl)piperidin-3-yl)-2-methylpyrazolo[1,5-a]pyrimidin-3-yl)-N-(thiophen-2-ylmethyl)methanamine]
< 500 nM | 500 to 5000 nM | Cc1ccc(CNCc2c(C)nn3c(C4CCCN(Cc5ccc(Cl)cc5)C4)ccnc23)s1 (stereo not drawn) [Example 150, 1-(7-(1-(4-Chlorobenzyl)piperidin-3-yl)-2-methylpyrazolo[1,5-a]pyrimidin-3-yl)-N-((5-methylthiophen-2-yl)methyl)methanamine]
< 500 nM | 500 to 5000 nM | Cc1nn2c(C3CCCN(Cc4ccc(Cl)cc4)C3)ccnc2c1CNCc1ccn(C)n1 (stereo not drawn) [Example 151, 1-(7-(1-(4-Chlorobenzyl)piperidin-3-yl)-2-methylpyrazolo[1,5-a]pyrimidin-3-yl)-N-((1-methyl-1H-pyrazol-3-yl)methyl)methanamine]
500 to 1000 nM | > 5000 nM | Cc1nnc(CNCc2c(C)nn3c(C4CCCN(Cc5ccc(Cl)cc5)C4)ccnc23)o1 (stereo not drawn) [Example 152, 1-(7-(1-(4-Chlorobenzyl)piperidin-3-yl)-2-methylpyrazolo[1,5-a]pyrimidin-3-yl)-N-((5-methyl-1,3,4-oxadiazol-2-yl)methyl)methanamine]
< 500 nM | 500 to 5000 nM | Cc1nn2c(C3CCCN(Cc4ccc(Cl)cc4)C3)ccnc2c1CNCCc1ccccc1 (stereo not drawn) [Example 153, N-((7-(1-(4-Chlorobenzyl)piperidin-3-yl)-2-methylpyrazolo[1,5-a]pyrimidin-3-yl)methyl)-2-phenylethan-1-amine]
< 500 nM | 500 to 5000 nM | CCNCc1c(C)nn2c(C3CCCN(Cc4ccc(Cl)cc4)C3)ccnc12 (stereo not drawn) [Example 155, N-((7-(1-(4-Chlorobenzyl)piperidin-3-yl)-2-methylpyrazolo[1,5-a]pyrimidin-3-yl)methyl)ethanamine]
500 to 1000 nM | > 5000 nM | Cc1nn2c(C3CCCN(Cc4ccc(Cl)cc4)C3)ccnc2c1CNCC(F)(F)F (stereo not drawn) [Example 156, N-((7-(1-(4-Chlorobenzyl)piperidin-3-yl)-2-methylpyrazolo[1,5-a]pyrimidin-3-yl)methyl)-2,2,2-trifluoroethan-1-amine]
< 500 nM | 500 to 5000 nM | Cc1nn2c(C3CCCN(Cc4ccc(Cl)cc4)C3)ccnc2c1CNCC1CC1 (stereo not drawn) [Example 157, 1-(7-(1-(4-Chlorobenzyl)piperidin-3-yl)-2-methylpyrazolo[1,5-a]pyrimidin-3-yl)-N-(cyclopropylmethyl)methanamine]
< 500 nM | 500 to 5000 nM | Cc1nn2c(C3CCCN(Cc4ccc(Cl)cc4)C3)ccnc2c1CNCCO (stereo not drawn) [Example 158, 2-(((7-(1-(4-Chlorobenzyl)piperidin-3-yl)-2-methylpyrazolo[1,5-a]pyrimidin-3-yl)methyl)amino)ethan-1-ol]
< 500 nM | 500 to 5000 nM | Cc1nn2c(C3CCCN(Cc4ccc(Cl)cc4)C3)ccnc2c1CNC(C)C (stereo not drawn) [Example 159, N-((7-(1-(4-Chlorobenzyl)piperidin-3-yl)-2-methylpyrazolo[1,5-a]pyrimidin-3-yl)methyl)propan-2-amine]
< 500 nM | 500 to 5000 nM | Cc1nn2c(C3CCCN(Cc4ccc(Cl)cc4)C3)ccnc2c1CNCC(C)C (stereo not drawn) [Example 160, N-((7-(1-(4-Chlorobenzyl)piperidin-3-yl)-2-methylpyrazolo[1,5-a]pyrimidin-3-yl)methyl)-2-methylpropan-1-amine]
< 500 nM | 500 to 5000 nM | Cc1nn2c(C3CCCN(Cc4ccc(Cl)cc4)C3)ccnc2c1CNCCC(C)C (stereo not drawn) [Example 161, N-((7-(1-(4-Chlorobenzyl)piperidin-3-yl)-2-methylpyrazolo[1,5-a]pyrimidin-3-yl)methyl)-3-methylbutan-1-amine]
< 500 nM | 500 to 5000 nM | Cc1nn2c(C3CCCN(Cc4ccc(Cl)cc4)C3)ccnc2c1CNCCOC(C)C (stereo not drawn) [Example 162, N-((7-(1-(4-Chlorobenzyl)piperidin-3-yl)-2-methylpyrazolo[1,5-a]pyrimidin-3-yl)methyl)-2-isopropoxyethan-1-amine]
< 500 nM | < 500 nM | COCCCCNCc1c(C)nn2c(C3CCCN(Cc4ccc(Cl)cc4)C3)ccnc12 (stereo not drawn) [Example 163, N-((7-(1-(4-Chlorobenzyl)piperidin-3-yl)-2-methylpyrazolo[1,5-a]pyrimidin-3-yl)methyl)-4-methoxybutan-1-amine]
< 500 nM | 500 to 5000 nM | Cc1nn2c(C3CCCN(Cc4ccc(Cl)cc4)C3)ccnc2c1CNCCN1CCOCC1 (stereo not drawn) [Example 166, N-((7-(1-(4-Chlorobenzyl)piperidin-3-yl)-2-methylpyrazolo[1,5-a]pyrimidin-3-yl)methyl)-2-morpholinoethan-1-amine]
> 1000 nM | 500 to 5000 nM | Cc1nn2c(C3CCCN(Cc4ccc(Cl)cc4)C3)ccnc2c1CNCCCN1CCCC1=O (stereo not drawn) [Example 176, 1-(3-(((7-(1-(4-Chlorobenzyl)piperidin-3-yl)-2-methylpyrazolo[1,5-a]pyrimidin-3-yl)methyl)amino)propyl)pyrrolidin-2-one]

More lines, now with the values behind:

Structure (SMILES) | Ki (Human σ1 receptor) | Ki [1]
Cc1nn2c(C3CCCN(Cc4ccc(Cl)cc4)C3)ccnc2c1CNCc1ccncc1 (stereo not drawn) [Example 148, 1-(7-(1-(4-Chlorobenzyl)piperidin-3-yl)-2-methylpyrazolo[1,5-a]pyrimidin-3-yl)-N-(pyridin-4-ylmethyl)methanamine] | < 500 nM | 500 to 5000 nM
COc1ccc(CCNCc2c(C)nn3c(C4CCCN(Cc5ccc(Cl)cc5)C4)ccnc23)cc1 (stereo not drawn) [Example 154, N-((7-(1-(4-Chlorobenzyl)piperidin-3-yl)-2-methylpyrazolo[1,5-a]pyrimidin-3-yl)methyl)-2-(4-methoxyphenyl)ethan-1-amine] | 500 to 1000 nM | 500 to 5000 nM
Cc1nn2c(C3CCCN(Cc4ccc(Cl)cc4)C3)ccnc2c1CN1C[C@@H](C)O[C@@H](C)C1 (stereo partly drawn) [Example 164, (2S,6R)-4-((7-(1-(4-Chlorobenzyl)piperidin-3-yl)-2-methylpyrazolo[1,5-a]pyrimidin-3-yl)methyl)-2,6-dimethylmorpholine] | 500 to 1000 nM | 500 to 5000 nM
Cc1nn2c(C3CCCN(Cc4ccc(Cl)cc4)C3)ccnc2c1CN1CCOCC1 (stereo not drawn) [Example 165, 4-((7-(1-(4-Chlorobenzyl)piperidin-3-yl)-2-methylpyrazolo[1,5-a]pyrimidin-3-yl)methyl)morpholine] | 500 to 1000 nM | > 5000 nM
Cc1nn2c(C3CCCN(Cc4ccc(Cl)cc4)C3)ccnc2c1CN1CCSCC1 (stereo not drawn) [Example 167, 4-((7-(1-(4-Chlorobenzyl)piperidin-3-yl)-2-methylpyrazolo[1,5-a]pyrimidin-3-yl)methyl)thiomorpholine] | < 500 nM | 500 to 5000 nM
Cc1nn2c(C3CCCN(Cc4ccc(Cl)cc4)C3)ccnc2c1CN1CCS(=O)(=O)CC1 (stereo not drawn) [Example 168, 4-((7-(1-(4-Chlorobenzyl)piperidin-3-yl)-2-methylpyrazolo[1,5-a]pyrimidin-3-yl)methyl)thiomorpholine 1,1-dioxide] | 500 to 1000 nM | 500 to 5000 nM
Cc1nn2c(C3CCCN(Cc4ccc(Cl)cc4)C3)ccnc2c1CN1CCCCC1 (stereo not drawn) [Example 169, 7-(1-(4-Chlorobenzyl)piperidin-3-yl)-2-methyl-3-(piperidin-1-ylmethyl)pyrazolo[1,5-a]pyrimidine] | < 500 nM | 500 to 5000 nM
COCC1CCN(Cc2c(C)nn3c(C4CCCN(Cc5ccc(Cl)cc5)C4)ccnc23)CC1 (stereo not drawn) [Example 170, 7-(1-(4-Chlorobenzyl)piperidin-3-yl)-3-((4-(methoxymethyl)piperidin-1-yl)methyl)-2-methylpyrazolo[1,5-a]pyrimidine] | < 500 nM | < 500 nM
Cc1nn2c(C3CCCN(Cc4ccc(Cl)cc4)C3)ccnc2c1CN1CCC(C(N)=O)CC1 (stereo not drawn) [Example 171, 1-((7-(1-(4-Chlorobenzyl)piperidin-3-yl)-2-methylpyrazolo[1,5-a]pyrimidin-3-yl)methyl)piperidine-4-carboxamide] | < 500 nM | 500 to 5000 nM
Cc1nn2c(C3CCCN(Cc4ccc(Cl)cc4)C3)ccnc2c1CN1CCC(C#N)CC1 (stereo not drawn) [Example 172, 1-((7-(1-(4-Chlorobenzyl)piperidin-3-yl)-2-methylpyrazolo[1,5-a]pyrimidin-3-yl)methyl)piperidine-4-carbonitrile] | < 500 nM | > 5000 nM
Cc1nn2c(C3CCCN(Cc4ccc(Cl)cc4)C3)ccnc2c1CN1CCNC(=O)C1 (stereo not drawn) [Example 173] | > 1000 nM | > 5000 nM
CC(=O)N1CCN(Cc2c(C)nn3c(C4CCCN(Cc5ccc(Cl)cc5)C4)ccnc23)CC1 (stereo not drawn) [Example 174, 1-(4-((7-(1-(4-Chlorobenzyl)piperidin-3-yl)-2-methylpyrazolo[1,5-a]pyrimidin-3-yl)methyl)piperazin-1-yl)ethan-1-one] | > 1000 nM | 500 to 5000 nM
Cc1nn2c(C3CCCN(Cc4ccc(Cl)cc4)C3)ccnc2c1CN1CCN(S(C)(=O)=O)CC1 (stereo not drawn) [Example 175, 7-(1-(4-Chlorobenzyl)piperidin-3-yl)-2-methyl-3-((4-(methylsulfonyl)piperazin-1-yl)methyl)pyrazolo[1,5-a]pyrimidine] | > 1000 nM | > 5000 nM
Cc1nn2c(C3CCCN(Cc4ccc(Cl)cc4)C3)ccnc2c1CNCC1(F)CCOCC1 (stereo not drawn) [Example 177, 1-(7-(1-(4-Chlorobenzyl)piperidin-3-yl)-2-methylpyrazolo[1,5-a]pyrimidin-3-yl)-N-((4-fluorotetrahydro-2H-pyran-4-yl)methyl)methanamine] | < 500 nM | 500 to 5000 nM
